Assay results taken from ChEMBL document CHEMBL1149872, “Glycosides from the root of Iodes cirrhosa” (2008).

Each compound was assayed on PC-12 (assay: Neuroprotective activity against rat PC12 cells assessed as glutamate-induced neurotoxicity at 10 uM after 24 hrs by MTT assay).
Type: functional
For `COc1cc([C@@H](O)[C@H](CO)Oc2ccc(CCCO[C@@H]3O[C@H](CO)[C@@H](O)[C@H](O)[C@H]3O)cc2O)ccc1O`, the Activity was 36.4%.
`COc1cc([C@@H](O)[C@H](CO)O[C@@H]2O[C@H](CO)[C@@H](O)[C@H](O)[C@H]2O)ccc1O` showed an Activity of -46.6%.
With `COc1cc([C@H](O)[C@H](CO)O[C@@H]2O[C@H](CO)[C@@H](O)[C@H](O)[C@H]2O)cc(OC)c1O` the Activity was -28.4%.
`COc1cc([C@H](O)[C@H](CO)O[C@@H]2O[C@H](CO)[C@@H](O)[C@H](O)[C@H]2O)ccc1O` showed an Activity of -32.9%.
For `COc1cc([C@H]2OC[C@H]3[C@@H]2CO[C@@H]3c2cc(OC)c(O[C@@H]3O[C@H](CO)[C@@H](O)[C@H](O)[C@H]3O)c(OC)c2)cc(OC)c1O[C@H]1O[C@@H](CO)[C@H](O)[C@@H](O)[C@@H]1O` [LIRIODENDRTACHIOSIDE], the Activity was 20.5%.
